In patent US11279686B2, “Nrf2 activating compounds and uses thereof” (Rigel Pharmaceuticals, Inc., priority 2016, dated 2022):
Where a name gives a salt, the structure may show the parent alone.

System: NrF2 (Nuclear factor (erythroid-derived 2)-like 2)
Test: NrF2 activation in a whole cell nuclear translocation assay
Assay type: cell-based
Details: read-out: NrF2 translocation assay EC50; whole cell nuclear translocation; Table 2
Description: NrF2 Activation in a Whole Cell Nuclear Translocation Assay
Compounds were tested in a NrF2 (Nuclear factor (erythroid-derived 2)-like 2) translocation assay by adapting the methods set forth in U.S. Pat. No. 8,101,373, the disclosure of which is incorporated herein by reference.

First: CS(=O)(=O)/C=C/n1nnn(-c2cccnc2)c1=O [Compound 3, (E)-1-(2-(methylsulfonyl)vinyl)-4-(pyridin-3-yl)-1,4-dihydro-5H-tetrazol-5-one]
Second: CS(=O)(=O)/C=C/C(=O)O [Compound 15, (E)-3-(methylsulfonyl)acrylic Acid]
The EC50 of the first is 370-fold lower: 120 nM for the first, 44800 nM for the second. The first is the more potent here.

Same assay, conditions: reference fumarates; read-out: NrF2 activation EC50

First: COC(=O)/C=C/C(=O)O [Monomethyl fumarate, reference compound]
Second: COC(=O)/C=C/C(=O)OC [dimethyl fumarate, reference compound]
The EC50 of the first is 16-fold higher: roughly 127000 nM for the first, roughly 7900 nM for the second. The second is the more potent here.

Same assay, conditions: whole cell nuclear translocation; Table 2; read-out: NrF2 translocation assay EC50

First: Cc1ccc(S(=O)(=O)/C=C/n2nnn(-c3cccnc3)c2=O)cc1 [Compound 1, (E)-1-(pyridin-3-yl)-4-(2-tosylvinyl)-1,4-dihydro-5H-tetrazol-5-one]
Second: O=c1n(/C=C/S(=O)(=O)c2ccc(F)cc2)nnn1-c1cccnc1 [Compound 19, (E)-1-(2-((4-fluorophenyl)sulfonyl)vinyl)-4-(pyridin-3-yl)-1,4-dihydro-5H-tetrazol-5-one]
The EC50 of the first is 9.7-fold higher: 290 nM for the first, 30 nM for the second. The second is the more potent here.

`COC(=O)/C=C/S(=O)(=O)c1ccc(NC(C)=O)cc1` [Compound 4] and `COC(=O)/C=C\S(=O)(=O)c1ccc(F)cc1` [Compound 6] are within 1.5-fold of each other in EC50: 750 nM for the first, 790 nM for the second.

Going from `COC(=O)/C=C/S(C)(=O)=O` [Compound 5] to `COC(=O)/C=C/S(=O)(=O)c1ccc(Br)cc1` [Compound 8], the EC50 falls from 1000 nM to less than 390 nM. The second is the more potent here.

`CCOC(=O)/C=C/S(=O)(=O)c1ccccc1` [Compound 7] and `COC(=O)/C=C/S(=O)(=O)c1ccc2ccccc2c1` [Compound 9] cannot be ordered by EC50: less than 390 nM for the first, less than 390 nM for the second.

`CCn1nnn(/C=C/S(=O)(=O)c2ccc(C)cc2)c1=O` [Compound 16, (E)-1-ethyl-4-(2-tosylvinyl)-1,4-dihydro-5H-tetrazol-5-one] and `Cc1ccc(S(=O)(=O)/C=C/n2nnn(Cc3ccccc3)c2=O)cc1` [Compound 17, (E)-1-benzyl-4-(2-tosylvinyl)-1,4-dihydro-5H-tetrazol-5-one] are within 1.5-fold of each other in EC50: 190 nM for the first, 170 nM for the second.

Compound `Cn1nnn(/C=C/S(=O)(=O)c2ccc(F)cc2)c1=O` [Compound 18, (E)-1-(2-((4-fluorophenyl)sulfonyl)vinyl)-4-methyl-1,4-dihydro-5H-tetrazol-5-one] has an EC50 of 200 nM.

System: not listed separately
Test: Glutathione depletion assay (Michael reaction with reduced glutathione followed by 1H NMR)
Details: 2 equiv. reduced glutathione, d6-DMSO, 35° C.
From the text: See, for example, Lehmann et al. Dimethyfumarate Induces Immunosuppression via Glutathione Depletion and Subsequent Induction of Heme Oxygenase 1, Journal of Investigative Dermatology (2007) 127, 835-845. Accordingly, the present compounds may be assessed in vitro by reaction with glutathione as follows:
(with the top securely fastened).
In all the above cases, dis-appearance of the alkene proton signals from the starting material are used to determine the extent of Michael reaction with glutathione.
As would be understood by those of skill in the art, the above experiments can be repeated by varying the equivalents of reduced glutathione (0.5 to 2 equivalents); the reactions can also be run in a mixture of d6-DMSO and D2O; and the temperature of the reaction can also be varied from room temperature to 35° C. (35° C. being used to mimic body temperature). As used herein “majority reaction” means a greater than 50% reduction in alkene proton signal as observed by ^1H NMR.

In the case of `COC(=O)/C=C/n1nnn(C)c1=O` [methyl (E)-3-(4-methyl-5-oxo-4,5-dihydro-1H-tetrazol-1-yl)acrylate], the “time to majority reaction with glutathione (greater than 50% reduction in alkene proton signal by 1H NMR)” value is reported as no more than 30 h.
In the case of `COC(=O)/C=C/n1nn[nH]c1=O` [methyl (E)-3-(5-oxo-4,5-dihydro-1H-tetrazol-1-yl)acrylate], the “time to majority reaction with glutathione (greater than 50% reduction in alkene proton signal by 1H NMR)” value is reported as no more than 30 h.

System: experimental autoimmune encephalomyelitis (EAE)
Test: Experimental autoimmune encephalomyelitis (EAE) animal model
Assay type: in vivo, C57BL/6 mice
Details: dosed at 60 mg/kg beginning on the day of immunization

In the case of `COC(=O)/C=C/n1nn[nH]c1=O` [methyl (E)-3-(5-oxo-4,5-dihydro-1H-tetrazol-1-yl)acrylate], the “onset of disease paralysis” value is reported as “significantly prevents”.
